Measurements: PubChem BioAssay (NCI)
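96-well plates; 48 h exposure; 5 concentrations. Endpoints by linear interpolation between flanking doses. Not reached: highest tested concentration assigned. GI50: concentration for 50% inhibition of growth. The concentration for full growth arrest is given as TGI.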

What was measured:
Experiment in all cases: NCI tumour cell line growth inhibition, 48 h
M19-MEL melanoma = test system: M19-MEL melanoma
HCT-116 colon = test system: HCT-116 colon
SF-539 CNS = test system: SF-539 CNS
SF-295 CNS = test system: SF-295 CNS
HOP-92 NSCLC = test system: HOP-92 NSCLC
SK-OV-3 ovarian = test system: SK-OV-3 ovarian
LOX IMVI melanoma = test system: LOX IMVI melanoma
HT29 colon = test system: HT29 colon
UO-31 renal = test system: UO-31 renal
NCI-H23 lung = test system: NCI-H23 lung
UACC-257 melanoma = test system: UACC-257 melanoma
KM12 colon = test system: KM12 colon
NCI-H522 lung = test system: NCI-H522 lung
NCI-H460 lung = test system: NCI-H460 lung
CCRF-CEM leukemia = test system: CCRF-CEM leukemia
SN12C renal = test system: SN12C renal
IGROV1 ovarian = test system: IGROV1 ovarian
MALME-3M melanoma = test system: MALME-3M melanoma
KM20L2 colon = test system: KM20L2 colon
HL-60(TB) leukemia = test system: HL-60(TB) leukemia
M14 melanoma = test system: M14 melanoma
SK-MEL-28 melanoma = test system: SK-MEL-28 melanoma
SNB-19 CNS = test system: SNB-19 CNS
SNB-75 CNS = test system: SNB-75 CNS
SK-MEL-2 melanoma = test system: SK-MEL-2 melanoma
XF 498 CNS = test system: XF 498 CNS
K-562 leukemia = test system: K-562 leukemia
U251 CNS = test system: U251 CNS
TK-10 renal = test system: TK-10 renal
OVCAR-8 ovarian = test system: OVCAR-8 ovarian
COLO 205 colon = test system: COLO 205 colon
RXF 393 renal = test system: RXF 393 renal
DLD-1 colon = test system: DLD-1 colon
MOLT-4 leukemia = test system: MOLT-4 leukemia
RPMI-8226 leukemia = test system: RPMI-8226 leukemia
SW-620 colon = test system: SW-620 colon
OVCAR-4 ovarian = test system: OVCAR-4 ovarian
HOP-18 NSCLC = test system: HOP-18 NSCLC
NCI-H226 lung = test system: NCI-H226 lung
SK-MEL-5 melanoma = test system: SK-MEL-5 melanoma
786-0 renal = test system: 786-0 renal
DMS 114 small cell lung = test system: DMS 114 small cell lung
DMS 273 small cell lung = test system: DMS 273 small cell lung
A549 NSCLC = test system: A549 NSCLC
LXFL 529 NSCLC = test system: LXFL 529 NSCLC
CAKI-1 renal = test system: CAKI-1 renal
SF-268 CNS = test system: SF-268 CNS
SR leukemia = test system: SR leukemia
HOP-62 NSCLC = test system: HOP-62 NSCLC
ACHN renal = test system: ACHN renal
OVCAR-5 ovarian = test system: OVCAR-5 ovarian
OVCAR-3 ovarian = test system: OVCAR-3 ovarian
HCT-15 colon = test system: HCT-15 colon
UACC-62 melanoma = test system: UACC-62 melanoma
A498 renal = test system: A498 renal
HCC-2998 colon = test system: HCC-2998 colon
SNB-78 CNS = test system: SNB-78 CNS
EKVX NSCLC = test system: EKVX NSCLC

CN(C)CCSC(=Nc1ccccc1)N1CCCCC1
TGI (M19-MEL melanoma): 31.2 µM
TGI (HCT-116 colon): 33.8 µM
TGI (SF-539 CNS): 38.1 µM
TGI (SF-295 CNS): > 100 µM
TGI (HOP-92 NSCLC): 27.5 µM
TGI (SK-OV-3 ovarian): > 100 µM
TGI (LOX IMVI melanoma): 30 µM
TGI (HT29 colon): 33 µM
TGI (UO-31 renal): 52.5 µM
TGI (NCI-H23 lung): 37.3 µM
TGI (UACC-257 melanoma): 29.6 µM
TGI (KM12 colon): 31 µM
TGI (NCI-H522 lung): 29 µM
TGI (NCI-H460 lung): 33.8 µM
TGI (CCRF-CEM leukemia): > 100 µM
TGI (SN12C renal): 32.6 µM
TGI (IGROV1 ovarian): 29.8 µM
TGI (MALME-3M melanoma): 35.2 µM
TGI (KM20L2 colon): 31.7 µM
TGI (HL-60(TB) leukemia): 49.5 µM
TGI (M14 melanoma): 29.9 µM
TGI (SK-MEL-28 melanoma): 28 µM
TGI (SNB-19 CNS): > 100 µM
TGI (SNB-75 CNS): 59.6 µM
TGI (SK-MEL-2 melanoma): 31.3 µM
TGI (XF 498 CNS): 30 µM
TGI (K-562 leukemia): > 100 µM
TGI (U251 CNS): > 100 µM
TGI (TK-10 renal): 33.1 µM
TGI (OVCAR-8 ovarian): 39.7 µM
TGI (COLO 205 colon): 28.8 µM
TGI (RXF 393 renal): 34.7 µM
TGI (DLD-1 colon): 31.5 µM
TGI (MOLT-4 leukemia): 58.7 µM
TGI (RPMI-8226 leukemia): 87.4 µM
TGI (SW-620 colon): 31.6 µM
TGI (OVCAR-4 ovarian): 40.2 µM
TGI (HOP-18 NSCLC): 33.5 µM
TGI (NCI-H226 lung): 24.5 µM
TGI (SK-MEL-5 melanoma): 29.8 µM
TGI (786-0 renal): 30 µM
TGI (DMS 114 small cell lung): 26.5 µM
TGI (DMS 273 small cell lung): 31.1 µM
TGI (A549 NSCLC): > 100 µM
TGI (LXFL 529 NSCLC): 29.4 µM
TGI (CAKI-1 renal): > 100 µM
TGI (SF-268 CNS): 38.8 µM
TGI (SR leukemia): 97.3 µM
TGI (HOP-62 NSCLC): > 100 µM
TGI (ACHN renal): 30.5 µM
TGI (OVCAR-5 ovarian): 35.3 µM
TGI (OVCAR-3 ovarian): 29.8 µM
TGI (HCT-15 colon): 30 µM
TGI (UACC-62 melanoma): 30.4 µM

CC1=CCC23C(C1)OC(Br)(C=CC2(C)O)C3(C)C (centres undefined)
TGI (M19-MEL melanoma): > 100 µM
TGI (HCT-116 colon): > 100 µM
TGI (SF-539 CNS): > 100 µM
TGI (SF-295 CNS): > 100 µM
TGI (HOP-92 NSCLC): > 100 µM
TGI (LOX IMVI melanoma): > 100 µM
TGI (HT29 colon): > 100 µM
TGI (NCI-H23 lung): > 100 µM
TGI (UACC-257 melanoma): > 100 µM
TGI (KM12 colon): > 100 µM
TGI (NCI-H460 lung): > 100 µM
TGI (A498 renal): > 100 µM
TGI (CCRF-CEM leukemia): > 100 µM
TGI (SN12C renal): > 100 µM
TGI (IGROV1 ovarian): > 100 µM
TGI (HCC-2998 colon): > 100 µM
TGI (MALME-3M melanoma): > 100 µM
TGI (HL-60(TB) leukemia): > 100 µM
TGI (SNB-78 CNS): > 100 µM
TGI (SK-MEL-28 melanoma): > 100 µM
TGI (SNB-75 CNS): > 100 µM
TGI (SK-MEL-2 melanoma): > 100 µM
TGI (XF 498 CNS): > 100 µM
TGI (K-562 leukemia): > 100 µM
TGI (EKVX NSCLC): > 100 µM
TGI (TK-10 renal): > 100 µM
TGI (OVCAR-8 ovarian): > 100 µM
TGI (COLO 205 colon): > 100 µM
TGI (DLD-1 colon): > 100 µM
TGI (SW-620 colon): > 100 µM
TGI (OVCAR-4 ovarian): > 100 µM
TGI (HOP-18 NSCLC): > 100 µM
TGI (NCI-H226 lung): > 100 µM
TGI (SK-MEL-5 melanoma): > 100 µM
TGI (786-0 renal): > 100 µM
TGI (DMS 114 small cell lung): > 100 µM
TGI (DMS 273 small cell lung): > 100 µM
TGI (A549 NSCLC): > 100 µM
TGI (CAKI-1 renal): > 100 µM
TGI (SF-268 CNS): > 100 µM
TGI (ACHN renal): > 100 µM
TGI (OVCAR-5 ovarian): > 100 µM
TGI (UACC-62 melanoma): > 100 µM

c1ccc2c(c1)CCc1cc3cc4c(nc3nc1-2)-c1ccccc1CC4
TGI (M19-MEL melanoma): > 100 µM
TGI (HCT-116 colon): > 100 µM
TGI (SF-539 CNS): > 100 µM
TGI (SF-295 CNS): > 100 µM
TGI (SK-OV-3 ovarian): > 100 µM
TGI (LOX IMVI melanoma): > 100 µM
TGI (UO-31 renal): > 100 µM
TGI (NCI-H23 lung): > 100 µM
TGI (UACC-257 melanoma): > 100 µM
TGI (KM12 colon): > 100 µM
TGI (NCI-H522 lung): > 100 µM
TGI (NCI-H460 lung): > 100 µM
TGI (CCRF-CEM leukemia): > 100 µM
TGI (SN12C renal): > 100 µM
TGI (IGROV1 ovarian): > 100 µM
TGI (HCC-2998 colon): > 100 µM
TGI (MALME-3M melanoma): > 100 µM
TGI (HL-60(TB) leukemia): > 100 µM
TGI (SNB-78 CNS): > 100 µM
TGI (M14 melanoma): > 100 µM
TGI (SK-MEL-28 melanoma): > 100 µM
TGI (SNB-19 CNS): > 100 µM
TGI (SNB-75 CNS): > 100 µM
TGI (K-562 leukemia): > 100 µM
TGI (EKVX NSCLC): > 100 µM
TGI (U251 CNS): > 100 µM
TGI (TK-10 renal): > 100 µM
TGI (OVCAR-8 ovarian): > 100 µM
TGI (COLO 205 colon): > 100 µM
TGI (RXF 393 renal): > 100 µM
TGI (DLD-1 colon): > 100 µM
TGI (MOLT-4 leukemia): > 100 µM
TGI (RPMI-8226 leukemia): > 100 µM
TGI (SW-620 colon): > 100 µM
TGI (NCI-H226 lung): > 100 µM
TGI (786-0 renal): > 100 µM
TGI (DMS 273 small cell lung): > 100 µM
TGI (A549 NSCLC): > 100 µM
TGI (LXFL 529 NSCLC): > 100 µM
TGI (SF-268 CNS): > 100 µM
TGI (SR leukemia): > 100 µM
TGI (HOP-62 NSCLC): > 100 µM
TGI (ACHN renal): > 100 µM
TGI (OVCAR-3 ovarian): > 100 µM
TGI (HCT-15 colon): > 100 µM
TGI (UACC-62 melanoma): > 100 µM

O=C(N/N=C/c1cc(Cl)cc(Cl)c1[O-])c1ccccc1O.O=C(N/N=C/c1cc(Cl)cc(Cl)c1[O-])c1ccccc1O.[Ni+2]
GI50 (HCT-116 colon): 0.439 µM
TGI (HCT-116 colon): 1.5 µM
GI50 (SF-539 CNS): 0.297 µM
TGI (SF-539 CNS): 1.16 µM
TGI (SF-295 CNS): 1.24 µM
GI50 (HOP-92 NSCLC): 0.495 µM
TGI (HOP-92 NSCLC): 1.79 µM
TGI (SK-OV-3 ovarian): 3.93 µM
TGI (LOX IMVI melanoma): 1.81 µM
TGI (HT29 colon): 3.4 µM
TGI (UO-31 renal): 10.1 µM
GI50 (NCI-H23 lung): 0.456 µM
TGI (NCI-H23 lung): 1.71 µM
TGI (UACC-257 melanoma): 2.67 µM
GI50 (KM12 colon): 0.494 µM
TGI (KM12 colon): 5.66 µM
TGI (NCI-H522 lung): 0.823 µM
TGI (NCI-H460 lung): 1.73 µM
TGI (IGROV1 ovarian): 1.74 µM
TGI (HCC-2998 colon): 1.56 µM
GI50 (MALME-3M melanoma): 0.759 µM
TGI (MALME-3M melanoma): 2.36 µM
GI50 (KM20L2 colon): 0.794 µM
TGI (KM20L2 colon): 2.15 µM
TGI (HL-60(TB) leukemia): 0.472 µM
TGI (M14 melanoma): 1.84 µM
TGI (SK-MEL-28 melanoma): 2.09 µM
TGI (SNB-19 CNS): 8.85 µM
TGI (SNB-75 CNS): 7.48 µM
GI50 (SK-MEL-2 melanoma): 0.329 µM
TGI (SK-MEL-2 melanoma): 1.35 µM
TGI (K-562 leukemia): 17.4 µM
GI50 (EKVX NSCLC): 1.33 µM
TGI (EKVX NSCLC): 5.28 µM
TGI (U251 CNS): 1.98 µM
TGI (TK-10 renal): 7.81 µM
TGI (OVCAR-8 ovarian): 1.41 µM
GI50 (COLO 205 colon): 0.794 µM
TGI (COLO 205 colon): 11.6 µM
TGI (RXF 393 renal): 2.1 µM
TGI (MOLT-4 leukemia): 29.7 µM
TGI (SW-620 colon): 1.97 µM
TGI (OVCAR-4 ovarian): 1.21 µM
TGI (NCI-H226 lung): 0.923 µM
TGI (SK-MEL-5 melanoma): 1.18 µM
GI50 (A549 NSCLC): 0.402 µM
TGI (A549 NSCLC): 3.33 µM
TGI (CAKI-1 renal): 1.41 µM
TGI (SF-268 CNS): 18.5 µM
TGI (SR leukemia): 1.46 µM
TGI (HOP-62 NSCLC): 2.09 µM
TGI (ACHN renal): 2.21 µM
TGI (OVCAR-5 ovarian): 1.09 µM
TGI (OVCAR-3 ovarian): 0.835 µM
TGI (HCT-15 colon): 1.92 µM
TGI (UACC-62 melanoma): 0.693 µM
